Measurements taken from ChEMBL document CHEMBL1201862, “PubChem BioAssay data set” (2004).
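Growth conditions: 96-well plates. Treatment: test compound, 48 hours, 5 concentrations. Analysis: linear interpolation between bracketing concentrations; unreached endpoints set to highest concentration. GI50: concentration for 50% inhibition of growth.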 Calls of active or inactive are those of the source. Rule as the data show it: active = GI50 up to about 1.1 µM and inactive = higher.

How the values were obtained:
Assay in all cases: NCI tumour cell line growth inhibition, 48 h
MDA-MB-231 = system: MDA-MB-231
SW-620 = system: SW-620
DU-145 = system: DU-145
NCI/ADR-RES = system: NCI/ADR-RES
BT-549 = system: BT-549
786-0 = system: 786-0
OVCAR-4 = system: OVCAR-4
SK-MEL-5 = system: SK-MEL-5
ACHN = system: ACHN
PC-3 = system: PC-3
A498 = system: A498
COLO 205 = system: COLO 205
MDA-MB-435 = system: MDA-MB-435
SR = system: SR
SK-MEL-2 = system: SK-MEL-2
HT-29 = system: HT-29
SK-MEL-28 = system: SK-MEL-28
Hs-578T = system: Hs-578T
SF-539 = system: SF-539
MOLT-4 = system: MOLT-4

Measured: GI50

Cc1nc2ccccc2nc1N1CCCC1
inactive: MDA-MB-231 > 100 µM | SW-620 > 100 µM | DU-145 > 100 µM | NCI/ADR-RES > 100 µM | BT-549 > 100 µM | 786-0 > 100 µM | OVCAR-4 > 100 µM | SK-MEL-5 > 100 µM | ACHN > 100 µM | PC-3 > 100 µM | A498 > 100 µM | COLO 205 > 100 µM | MDA-MB-435 > 100 µM | SR > 100 µM | SK-MEL-2 > 100 µM | HT-29 > 100 µM | SK-MEL-28 > 100 µM | Hs-578T > 100 µM

CCOC(=O)C1=C(C)OC2(O)C=CC(O)=C3C(=O)N(c4ccccc4)C(=O)C312 (stereo unspecified)
inactive: MDA-MB-231 37.8 µM | DU-145 36.7 µM | SF-539 29.1 µM | NCI/ADR-RES 42.2 µM | BT-549 31.6 µM | 786-0 40.5 µM | OVCAR-4 31.5 µM | ACHN 31.8 µM | PC-3 35.3 µM | COLO 205 43.1 µM | MDA-MB-435 37.8 µM | SR 18.9 µM | MOLT-4 29.7 µM | SK-MEL-2 30.5 µM | HT-29 29.3 µM | SK-MEL-28 22.5 µM | Hs-578T 32.9 µM

Nn1c(CCCCCCCCc2nnc(-c3c(O)ccc4ccccc34)n2N)nnc1-c1c(O)ccc2ccccc12
inactive: MDA-MB-231 > 100 µM | SW-620 > 100 µM | DU-145 > 100 µM | SF-539 > 100 µM | NCI/ADR-RES > 100 µM | BT-549 > 100 µM | 786-0 > 100 µM | OVCAR-4 > 100 µM | SK-MEL-5 > 100 µM | ACHN > 100 µM | PC-3 > 100 µM | COLO 205 > 100 µM | MDA-MB-435 > 100 µM | SR > 100 µM | MOLT-4 > 100 µM | SK-MEL-2 > 100 µM | HT-29 > 100 µM | SK-MEL-28 > 100 µM | Hs-578T > 100 µM

O=C1C(=Cc2ccccc2[N+](=O)[O-])N=C(c2ccccc2)N1n1c(-c2ccccc2)nc2ccccc2c1=O
inactive: MDA-MB-231 27.6 µM | SW-620 32.7 µM | DU-145 33.5 µM | SF-539 25.8 µM | NCI/ADR-RES 23.2 µM | BT-549 41.8 µM | 786-0 38 µM | OVCAR-4 33.4 µM | SK-MEL-5 31.5 µM | ACHN 30.8 µM | PC-3 27.3 µM | COLO 205 31.3 µM | MDA-MB-435 32.4 µM | SR 37.7 µM | MOLT-4 27.8 µM | SK-MEL-2 29.4 µM | HT-29 32.1 µM | SK-MEL-28 30.9 µM | Hs-578T 20.6 µM

Cc1nn(C(=O)c2ccc(Cl)cc2)c2c1C(c1ccccc1O)SC(=N)N2 (stereo unspecified)
inactive: MDA-MB-231 > 10 µM | SW-620 > 10 µM | DU-145 > 10 µM | SF-539 > 10 µM | NCI/ADR-RES > 10 µM | BT-549 > 10 µM | 786-0 > 10 µM | OVCAR-4 > 10 µM | SK-MEL-5 > 10 µM | ACHN > 10 µM | PC-3 > 10 µM | COLO 205 > 10 µM | MDA-MB-435 > 10 µM | SR > 10 µM | MOLT-4 > 10 µM | SK-MEL-2 > 10 µM | HT-29 > 10 µM | SK-MEL-28 > 10 µM | Hs-578T > 10 µM

Cc1nn(C(=O)c2ccncc2)c2c1C(c1cccc([N+](=O)[O-])c1)SC(=N)N2 (stereo unspecified)
inactive: MDA-MB-231 > 10 µM | SW-620 > 10 µM | DU-145 > 10 µM | SF-539 > 10 µM | NCI/ADR-RES > 10 µM | BT-549 > 10 µM | 786-0 > 10 µM | OVCAR-4 > 10 µM | SK-MEL-5 > 10 µM | ACHN > 10 µM | PC-3 > 10 µM | COLO 205 > 10 µM | MDA-MB-435 > 10 µM | SR > 10 µM | MOLT-4 > 10 µM | SK-MEL-2 > 10 µM | HT-29 > 10 µM | SK-MEL-28 > 10 µM | Hs-578T > 10 µM

O=c1oc2ccccc2c(Nc2ccc3c(c2)Sc2ccccc2O3)c1[N+](=O)[O-]
inactive: MDA-MB-231 21 µM | DU-145 27.8 µM | SF-539 26.3 µM | NCI/ADR-RES 26.9 µM | BT-549 27.8 µM | 786-0 22.7 µM | OVCAR-4 25 µM | SK-MEL-5 15.8 µM | ACHN 19.6 µM | PC-3 19.4 µM | COLO 205 16.3 µM | MDA-MB-435 29.2 µM | SR 24.8 µM | SK-MEL-2 20.5 µM | HT-29 23.9 µM | SK-MEL-28 16.2 µM | Hs-578T 30.9 µM

COc1ccc2[nH]c3c(c2c1)CC(=O)N1CCC[C@H](C1)CC31OCCCO1
inactive: MDA-MB-231 > 100 µM | SW-620 > 100 µM | DU-145 > 100 µM | NCI/ADR-RES > 100 µM | BT-549 > 100 µM | 786-0 > 100 µM | OVCAR-4 > 100 µM | SK-MEL-5 > 100 µM | ACHN > 100 µM | PC-3 > 100 µM | A498 > 100 µM | COLO 205 > 100 µM | MDA-MB-435 > 100 µM | SR > 100 µM | SK-MEL-2 > 100 µM | HT-29 > 100 µM | SK-MEL-28 > 100 µM | Hs-578T 86.7 µM
